This passage reports GI50 and TGI results from PubChem BioAssay (NCI).

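Grown in 96-well plates, cells were treated for 48 hours with each compound at five concentrations. Insufficient inhibition: endpoint recorded as highest concentration tested. The concentration for 50% growth inhibition is given as GI50. TGI denotes the concentration required for complete inhibition of growth.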 Where a SMILES comes first, the peptide text is derived from it. [ ]: non-standard residue; d: D form. NMeY = CN[C@@H](Cc1ccc(O)cc1)C(=O)O; dNMeF = CN[C@H](Cc1ccccc1)C(=O)O; Sar = CNCC(=O)O

Common to all, as to experiment: DTP human tumour cell line panel, 48 h
The test system of assay [1] is SF-268 CNS.
Assay [2] concerns NCI-H226 lung.
The test system of assay [3] is COLO 205 colon.
In assay [4] the test system is 786-0 renal.
Assay [5] has as its system HCT-116 colon.
Assay [6] has as its system SF-539 CNS.
The subject of assay [7] is SR leukemia.
For assay [8], the system named is A549 NSCLC.
Assay [9] relates to RXF 393 renal.
In assay [10] the test system is UO-31 renal.

As usually defined, the GI50 is the concentration that inhibits growth by half. A word on the TGI: it is the concentration at which net growth stops. Low readings indicate greater sensitivity of the cells, high ones lower sensitivity of the cells. On to `C[C@H]1[C@H](C)CC[C@]2(C(=O)O)CC[C@]3(C)C(=CC[C@@H]4[C@@]5(C)CC[C@H](OC(=O)/C=C/c6ccc(O)cc6)C(C)(C)[C@@H]5CC[C@]43C)[C@H]12`, for which the GI50 in [1] is 3.23 µM; in [2], 15.1 µM; in assay [3], 4.12 µM; in [4], 3.57 µM; in assay [5], 3.09 µM; in assay [6] it was 3.8 µM. The GI50 was 3.77 µM in assay [7], 2.37 µM in assay [8], 1.83 µM in assay [9] and 3.59 µM in assay [10]. Further, the TGI is 12 µM in [1]; 29.2 µM in assay [2]; over 50.3 µM in assay [3]; 9.53 µM in [4]; 7.93 µM in assay [5]; 10.2 µM in assay [6]. The TGI in assay [7] worked out at 24.2 µM; in assay [8], 12.7 µM; in [9], 5.42 µM; in assay [10], 29.8 µM.
For `COc1ccc2[nH]c(=O)c(/C=C/C(=O)/C=C/c3ccc(O)c(OC)c3)cc2c1`, the GI50 in assay [1] is 2.25 µM; in assay [2], 2.14 µM; in [3] it was 1.6 µM; in [4] it was 1.59 µM; in [5], 0.164 µM; in [6] it was 1.58 µM. In addition, the GI50 was 0.381 µM in assay [7], 2.24 µM in assay [8], 1.5 µM in assay [9] and 1.47 µM in assay [10]. Also, the TGI is 7.14 µM in [1]; 6.07 µM in assay [2]; 3.81 µM in assay [3]; 3.17 µM in assay [4]; 0.338 µM in assay [5]; 3.21 µM in assay [6]. Further, the TGI in assay [7] is over 100 µM; in [8] it was 6.35 µM; in assay [9], 2.9 µM; in assay [10], 2.79 µM.
Regarding `O=C(O)c1ccc(NCc2nc3cc4ccccc4cc3[nH]2)cc1`, the TGI in [1], in [2], in assay [3], in assay [4], in assay [5] and in assay [6] was over 100 µM in each case. For the same molecule, the TGI in [7], in assay [8], in assay [9] and in assay [10] was over 100 µM throughout.
Consider `NC(CSc1nc2ccccn2c1[N+](=O)[O-])C(=O)O` (stereo unspecified), for which the concentration for total growth inhibition (TGI) in assay [1], in assay [2], in [3], in [4], in assay [5] and in assay [6] was over 100 µM each time. Also, the TGI in [7] was over 100 µM; in assay [8], over 100 µM; in [9] it was over 100 µM; in assay [10] it was 8.54 µM.
Regarding `CCN(C(=O)CCl)C(C)(C)C(SSSC(c1ccc(Cl)cc1)C(C)(C)N(CC)C(=O)CCl)c1ccc(Cl)cc1` (stereo unspecified), the GI50 in assay [1] was 10.5 µM; in assay [2], 15 µM; in assay [3], 7.21 µM; in [4], 13.6 µM; in assay [5], 4.47 µM; in assay [6], 3.14 µM. The GI50 in assay [7] was 2.32 µM; in [8], 15 µM; in [9], 2.95 µM; in assay [10] it was 3.88 µM. In addition, the TGI turned out to be 23.9 µM in assay [1]; 33.4 µM in [2]; 24.8 µM in [3]; 31.2 µM in assay [4]; 18.5 µM in assay [5]; 10.9 µM in [6]. Also, the concentration for total growth inhibition (TGI) in assay [7] was found to be 5.15 µM; in [8], 31.1 µM; in [9], 13.8 µM; in [10], 15.3 µM.
Regarding `CCOC(=O)N1N=NC2C3OC(C[C@@]3(C#N)OC(C)=O)[C@H]21` (stereo partly specified), the TGI in [1], in assay [2], in assay [3], in assay [4], in assay [5] and in assay [6] was over 100 µM in each case. Further, the TGI in assay [7], in assay [8], in assay [9] and in assay [10] was over 100 µM each time.
For the molecule `CN(C)CCNC(=O)Cn1ccc(=O)c2ccc([N+](=O)[O-])cc21`, the TGI in assay [1], in assay [2], in [3], in assay [4], in [5] and in [6] was over 100 µM in each case. Moreover, the TGI in assay [7], in [8], in assay [9] and in assay [10] was over 100 µM in each case.
`Nc1c(C(=O)c2cccc(CCC3(O)CCCC3)c2)cnn1-c1ccc(F)cc1`: the GI50 in [1] was over 18.5 µM; in assay [2], 8.04 µM; in [3], 16.6 µM; in assay [4], over 20.4 µM; in assay [5], 18.5 µM; in assay [6], 18.2 µM. Also, the GI50 is 13.6 µM in assay [7], 12.6 µM in [8], 16.9 µM in assay [9] and 8.21 µM in assay [10]. The TGI in assay [1], in [2], in assay [3], in assay [4], in [5] and in assay [6] was over 25 µM in each case. Moreover, the TGI in assay [7], in assay [8], in assay [9] and in assay [10] was over 25 µM each time.
As for `O=C(NC(=S)NNC(=S)NNc1ccccc1)c1ccccc1`, the GI50 was 8.55 µM in assay [1]; 4.62 µM in [2]; 9.81 µM in assay [3]; 24.8 µM in assay [4]; 4.05 µM in assay [5]; 3.94 µM in [6]. Moreover, the GI50 in [7] was 3.7 µM; in assay [8] it was 8.58 µM; in [9] it was 29 µM; in [10] it was 4.69 µM. Also, the TGI in [1] is over 100 µM; in assay [2], over 100 µM; in [3], over 100 µM; in [4], over 100 µM; in [5], over 100 µM; in assay [6], 44.1 µM. The TGI in [7], in assay [8], in assay [9] and in assay [10] was over 100 µM throughout.
On to `CCC[CH2][Ge]([CH2]CCC)([CH2]CCC)[O]C(=O)C(OC)c1ccccc1` (stereo unspecified), for which the GI50 in assay [1] was 40.9 µM; in assay [2] it was 92.7 µM; in assay [3] it was 45.8 µM; in [4], 47.2 µM; in [5], 16.5 µM; in assay [6], 32.1 µM. Besides, the figures for the GI50 in assay [8], in assay [9] and in assay [10] were over 36.9 µM, 6.9 µM and over 41.7 µM, respectively. Moreover, the TGI in [1], in [2], in [3], in assay [4], in [5] and in [6] was over 100 µM throughout. Also, the TGI was over 55.4 µM in assay [7], over 100 µM in [8], 27.8 µM in [9] and over 100 µM in [10].
Turning to `Cc1ccc(N=Nc2c(N)nn(-c3ccccc3)c2N)cc1`, the GI50 is 4.7 µM in [1]; 59.4 µM in [2]; 1.21 µM in assay [3]; 0.755 µM in assay [4]; 0.542 µM in assay [5]; 1.78 µM in [6]. In addition, the GI50 in assay [7] is 0.378 µM; in assay [8] it was 2.13 µM; in assay [9] it was 2.9 µM; in assay [10] it was 7.97 µM. Moreover, the TGI in assay [1] was over 100 µM; in [2], over 100 µM; in assay [3], over 26.9 µM; in assay [5], over 100 µM; in assay [6], over 22.8 µM; in assay [7], over 100 µM. Moreover, the TGI in [8], in assay [9] and in assay [10] was over 100 µM throughout.
Consider `CC[C@H](C)[C@@H]1NC(=O)[C@H](Cc2ccc(O)cc2)N(C)C(=O)[C@H](Cc2ccccc2)NC(=O)CN(C)C(=O)[C@@H]2CCCN2C(=O)[C@@H](Cc2ccccc2)N(C)C(=O)[C@H](CC(C)C)NC1=O` (cyclo(F[NMeY]IL[dNMeF]P[Sar])), for which the GI50 was 0.217 µM in assay [1]; 0.768 µM in assay [2]; 0.185 µM in [3]; 0.467 µM in [4]; 0.155 µM in assay [5]; 0.287 µM in assay [6]. In addition, the GI50 in assay [7] was 0.123 µM; in assay [8], 0.301 µM; in [9], 0.519 µM; in assay [10], 2.63 µM. Moreover, the TGI turned out to be 6.94 µM in [1]; 8.18 µM in assay [2]; 3.3 µM in assay [3]; 5.75 µM in assay [4]; 10.5 µM in [5]; 2.61 µM in [6]. For the same molecule, the TGI is 6.28 µM in [7], 4.29 µM in assay [8], 3.27 µM in [9] and 13.1 µM in assay [10].
As for `O=C1OC(C2=CC(=O)c3ccccc3C2=O)C(Cl)=C1Cl` (stereo unspecified), the TGI was 79.2 µM in assay [1]; 95.3 µM in assay [2]; over 100 µM in assay [3]; 43.2 µM in assay [4]; over 100 µM in assay [5]; 72.7 µM in [6]. In addition, the TGI in assay [7] was 70.3 µM; in assay [8], over 100 µM; in assay [9], 52.5 µM; in assay [10], 31.8 µM.
Regarding `CCOC(=O)Cn1c(C)c(/C=N/NC(=O)c2cc3c(ccc4ccccc43)o2)c2ccccc21`, the GI50 is 1.03 µM in assay [1]; 0.801 µM in [2]; 0.401 µM in assay [3]; 0.491 µM in assay [4]; 0.338 µM in [5]; 0.316 µM in assay [6]. The GI50 in assay [7] was 0.153 µM; in assay [8], 0.627 µM; in assay [9], 0.319 µM; in [10], 0.753 µM. For the same molecule, the total growth inhibition concentration (TGI) was 5.39 µM in [2]; 2.24 µM in [4]; 1.46 µM in [5]; 1.28 µM in assay [6]; over 21.8 µM in assay [7]; 5.85 µM in assay [8]. In addition, the TGI in assay [9] turned out to be 1.08 µM; in assay [10] it was 2.61 µM.
Regarding `COc1cccc(-n2ncc3c(N/N=C/c4ccc(S(C)(=O)=O)cc4)ncnc32)c1`, the GI50 was 5.98 µM in [1]; 5.46 µM in assay [2]; 7.64 µM in assay [3]; 7.1 µM in [4]; 8.46 µM in [5]; 6.22 µM in [6]. The GI50 in assay [7] was over 12.4 µM; in assay [8], 9.24 µM; in [9] it was 2.2 µM; in assay [10], 5.77 µM. The TGI in assay [1] is 13.5 µM; in assay [2], 18.1 µM; in assay [3] it was over 25 µM; in assay [4], 20.1 µM; in assay [5] it was over 25 µM; in assay [6], over 25 µM. Further, the concentration for total growth inhibition (TGI) in assay [7] is over 25 µM; in assay [8], over 25 µM; in assay [9], 8.76 µM; in assay [10], 14.3 µM.
`COc1ccc2c(c1)sc1nc(-c3ccccc3)c(-c3ccc(O)c(OC)c3)n12`: the GI50 in assay [1] was 28.8 µM; in assay [2], 22 µM; in assay [3] it was 5.3 µM; in [4] it was 30.9 µM; in assay [5], 4.95 µM; in assay [6], 6.63 µM. For the same molecule, the GI50 in [7] was 3.34 µM; in assay [8], 9.91 µM; in assay [9] it was 4.9 µM; in assay [10], 81 µM. Besides, the concentration for total growth inhibition (TGI) is over 100 µM in assay [1]; over 100 µM in assay [2]; 34.6 µM in [3]; over 100 µM in assay [4]; over 100 µM in assay [5]; over 100 µM in assay [6]. Also, the TGI was over 100 µM in [7], over 100 µM in assay [8], 29.8 µM in assay [9] and over 100 µM in assay [10].
